In patent US20220000117A1, “METHOD FOR CONTROLLING DISEASES IN SMALL GRAIN CEREALS, SEED OF SMALL GRAIN CEREALS, AND METHOD FOR SUPPRESSING LODGING DAMAGE IN SMALL GRAIN CEREALS” (KUMIAI CHEMICAL INDUSTRY CO., LTD., priority 2019, published 2022):

Tests used:
powdery mildew [1] = assay: Test Example 2: control test of wheat powdery mildew, pot in greenhouse, inoculated, wheat variety Norin No. 61; type: in vivo, Blumeria graminis; settings: for Degree of Disease Occurrence: inoculated day 49, first leaf, 59 days after seeding
Protocol: (§1) Degree of Disease Occurrence=Σ(Index×Number of Leaves of Index)/(4×Number of Investigated Leaves)×100 (1)
Seed having a mass of 1 kg of wheat (variety: Norin No. 61) was mixed into 100 ml of suspension water containing 5 g or 0.5 g of dichlobentiazox or isotianil (commercial Routine flowable was used, “Routine” is a registered trademark) and air-dried, and then, 15 seeds were sown in a plastic pot of 9 cm×9 cm containing horticultural soil and managed in a greenhouse. The number of emerged seeds was investigated 10 days after seeding, and an emergence rate was calculated (Examples 2 to 5). On day 49 after seeding, conidiospores of powdery mildew were sifted over leaves of wheat seedlings and inoculated onto the leaves, a lesion area ratio of powdery mildew in a first leaf was investigated 59 days after seeding according to the criteria in Table 1, and the degree of disease occurrence was calculated by the above calculation formula (1).

[2] = system: wheat (variety: Norin No. 61); assay: Test Example 3: emergence rate of wheat seed; type: in vivo
Protocol: (§2) Seed having a mass of 1 kg of wheat (variety: Norin No. 61) was mixed into 100 ml of suspension water containing 5 g or 0.5 g of dichlobentiazox or isotianil and air-dried, and then, 12 seeds were sown in a plastic cup having a diameter of 6 cm containing river sand and managed in a greenhouse. The number of emerged seeds was investigated nine days after seeding, and an emergence rate was calculated (Examples 6 to 9). In Comparative Examples 6 to 9, 20 ml of suspension water of an active ingredient, which had been adjusted to have a concentration shown in Table 4, was sprayed in a frame of 45 cm×45 cm in which a pot of wheat seedlings was placed (corresponding to 1000 L/ha) 14 days after seeding. On day 14 after seeding, conidiospores of powdery mildew were sifted over leaves of wheat seedlings and inoculated onto the leaves (after the sprayed liquid was dried in the case of Comparative Examples), a lesion area ratio of powdery mildew in a first leaf was investigated 19 days after seeding according to the criteria in Table 1, and the degree of disease occurrence was calculated by the above calculation formula (1).

[3] = system: wheat (variety: Haruyutaka); assay: Test Example 6: evaluation test of shortening of wheat (culm length, seed yield), field; type: in vivo
powdery mildew [4] = assay: Test Example 3: control test of wheat powdery mildew, cup in greenhouse, inoculated; type: in vivo, Blumeria graminis; set-up: key to Degree of Disease Occurrence: Σ(index×no. leaves of index)/(4×no. investigated leaves)×100; settings: for Degree of Disease Occurrence: 19 days after seeding
Protocol: as §1, §2

For `O=S1(=O)N=C(OCc2snc(Cl)c2Cl)c2ccccc21` [Compound (1), Dichlobentiazox], the “Degree of Disease Occurrence” value (powdery mildew [1]; Seed Treatment 0.5 g/Seed 1 kg (50 g/ha)) was 10.7, the “Degree of Disease Occurrence” value (powdery mildew [1]; Seed Treatment 5 g/Seed 1 kg (500 g/ha)) was 0.0 and the “disease occurrence under artificial inoculation of powdery mildew” value (powdery mildew [1]; seed treatment) was “the disease occurrence was suppressed”. For the same compound, the “Emergence Rate (%)” value ([2]; Foliage Treatment group, spray 50 ppm (50 g/ha) 14 days after seeding, emergence counted nine days after seeding) was 100%, the “Emergence Rate (%)” value ([2]; Foliage Treatment group, spray 500 ppm (500 g/ha) 14 days after seeding, emergence counted nine days after seeding) was 97% and the “Emergence Rate (%)” value ([2]; Seed Treatment 0.5 g/Seed 1 kg (50 g/ha), nine days after seeding) was 97%. For the same compound, the “Emergence Rate (%)” value ([2]; Seed Treatment 5 g/Seed 1 kg (500 g/ha), nine days after seeding) was 100%, the “Culm Length (cm)” value ([3]; Dichlobentiazox Seed Treatment 5 g/Seed 1 kg plus Propiconazole foliage spray 120 g/ha four times, harvested 106 days after seeding) was 80.1 cm and the “Seed Yield” value ([3]; Dichlobentiazox Seed Treatment 5 g/Seed 1 kg plus Propiconazole foliage spray 120 g/ha four times, wheat in 3 m2, 106 days after seeding) was 1015 g. The “culm length in harvesting time, compared with no seed treatment” value ([3]; seed treatment) was “slightly shorter”, the “yield amount of wheat grains, compared with no seed treatment” value ([3]; seed treatment) was “slightly higher” and the “Degree of Disease Occurrence” value (powdery mildew [4]; Foliage Treatment, spray 50 ppm suspension water (50 g/ha) day 14, first leaf) was 52.8. The “Degree of Disease Occurrence” value (powdery mildew [4]; Foliage Treatment, spray 500 ppm suspension water (500 g/ha) day 14, first leaf) was 44.4, the “Degree of Disease Occurrence” value (powdery mildew [4]; Seed Treatment 0.5 g/Seed 1 kg (50 g/ha), inoculated day 14, first leaf) was 10.1 and the “Degree of Disease Occurrence” value (powdery mildew [4]; Seed Treatment 5 g/Seed 1 kg (500 g/ha), inoculated day 14, first leaf) was 9.0. For the same compound, the “disease occurrence of powdery mildew, seed treatment compared with spraying on foliage during a growing period” value (powdery mildew [4]; seed treatment) was “suppressed lower”.
